Laboratory results published in the NIST ThermoML archive (doi:10.1021/je0341413).

Assay: xn = mol fraction of the nth substance listed
Conditions: 101.3 kPa, Liquid

CCOC(=O)OCC [diethyl carbonate] + CCCO
Conditions	viscosity [mPa·s]
293.15 K, x1 = 0.0504	1.9
293.15 K, x1 = 0.1007	1.662
293.15 K, x1 = 0.2008	1.325
293.15 K, x1 = 0.3019	1.115
293.15 K, x1 = 0.4004	0.998
293.15 K, x1 = 0.5039	0.921
293.15 K, x1 = 0.6031	0.877
293.15 K, x1 = 0.7007	0.84
293.15 K, x1 = 0.7999	0.808
293.15 K, x1 = 0.9132	0.786
293.15 K, x1 = 0.9531	0.785
293.15 K, x1 = 1	0.795
298.15 K, x1 = 0.0515	1.689
298.15 K, x1 = 0.0993	1.482
298.15 K, x1 = 0.2012	1.178
298.15 K, x1 = 0.3007	1.005
298.15 K, x1 = 0.4026	0.904
298.15 K, x1 = 0.5022	0.845
298.15 K, x1 = 0.6029	0.801
298.15 K, x1 = 0.7041	0.762
298.15 K, x1 = 0.8087	0.73
298.15 K, x1 = 0.9065	0.721
298.15 K, x1 = 0.9523	0.729
298.15 K, x1 = 1	0.749
303.15 K, x1 = 0.0464	1.494
303.15 K, x1 = 0.0963	1.315
303.15 K, x1 = 0.1968	1.062
303.15 K, x1 = 0.2981	0.907
303.15 K, x1 = 0.3987	0.818
303.15 K, x1 = 0.4958	0.771
303.15 K, x1 = 0.5991	0.732
303.15 K, x1 = 0.6967	0.703
303.15 K, x1 = 0.8063	0.678
303.15 K, x1 = 0.908	0.674
303.15 K, x1 = 0.9448	0.682
303.15 K, x1 = 1	0.699
313.15 K, x1 = 0.05	1.214
313.15 K, x1 = 0.1018	1.087
313.15 K, x1 = 0.2001	0.911
313.15 K, x1 = 0.3017	0.795
313.15 K, x1 = 0.3958	0.727
313.15 K, x1 = 0.504	0.674
313.15 K, x1 = 0.6009	0.642
313.15 K, x1 = 0.7032	0.624
313.15 K, x1 = 0.7998	0.61
313.15 K, x1 = 0.8997	0.608
313.15 K, x1 = 0.9468	0.612
313.15 K, x1 = 1	0.623

CCOC(=O)OCC [diethyl carbonate] + CO
Conditions	viscosity [mPa·s]
293.15 K, x1 = 0.0513	0.592
293.15 K, x1 = 0.1002	0.596
293.15 K, x1 = 0.1972	0.608
293.15 K, x1 = 0.2839	0.623
293.15 K, x1 = 0.4038	0.642
293.15 K, x1 = 0.5	0.657
293.15 K, x1 = 0.5933	0.675
293.15 K, x1 = 0.6417	0.685
293.15 K, x1 = 0.7996	0.722
293.15 K, x1 = 0.9014	0.75
293.15 K, x1 = 0.9709	0.782
293.15 K, x1 = 1	0.795
298.15 K, x1 = 0.0496	0.556
298.15 K, x1 = 0.0996	0.558
298.15 K, x1 = 0.1985	0.574
298.15 K, x1 = 0.2944	0.588
298.15 K, x1 = 0.4014	0.603
298.15 K, x1 = 0.4975	0.615
298.15 K, x1 = 0.6068	0.637
298.15 K, x1 = 0.7087	0.658
298.15 K, x1 = 0.8365	0.688
298.15 K, x1 = 0.9091	0.71
298.15 K, x1 = 0.9598	0.731
298.15 K, x1 = 1	0.749
303.15 K, x1 = 0.049	0.518
303.15 K, x1 = 0.0966	0.524
303.15 K, x1 = 0.1958	0.537
303.15 K, x1 = 0.2824	0.548
303.15 K, x1 = 0.3914	0.563
303.15 K, x1 = 0.4936	0.578
303.15 K, x1 = 0.581	0.592
303.15 K, x1 = 0.6945	0.612
303.15 K, x1 = 0.7349	0.62
303.15 K, x1 = 0.8512	0.645
303.15 K, x1 = 0.9214	0.663
303.15 K, x1 = 1	0.699
313.15 K, x1 = 0.0509	0.456
313.15 K, x1 = 0.0999	0.46
313.15 K, x1 = 0.2009	0.475
313.15 K, x1 = 0.2981	0.49
313.15 K, x1 = 0.4009	0.505
313.15 K, x1 = 0.5056	0.524
313.15 K, x1 = 0.6062	0.543
313.15 K, x1 = 0.7033	0.561
313.15 K, x1 = 0.8055	0.584
313.15 K, x1 = 0.902	0.603
313.15 K, x1 = 0.9448	0.61
313.15 K, x1 = 1	0.623
